How the values were obtained:
[1] = target: T1, IKZF2 expression in human CD4+FOXP3+ regulatory T cells (Homo sapiens, UniProt Q96SW2+Q9UKS7); assay: PD in MDA-MB231 xenograft hPBMC AdT model: IKZF2 in Tregs by flow cytometry (FIG. 7); type: in vivo
T1 construct: endogenous in cells; host or cells: adoptively transferred human PBMCs (Tregs, tumor-infiltrating lymphocytes) in NSG mice
Description: FIG. 6 is a pictorial representation of the multi-dose PK/PD study design in the human PBMC adoptive transfer mouse model harboring MDA-MB231 xenografts. Fourteen consecutive daily doses of Compound I-57 was administered at 0.3 mg/kg, 1 mg/kg, 3 mg/kg or 30 mg/kg.
FIG. 7 is a graph showing the change in the IKZF2 expression in human CD4+FOXP3+ regulatory T cells isolated from MDA-MB231 tumor xenografts (Tumor) or blood (Periphery) following 14 daily oral doses of 0.3, 1, 3 and 30 mg/kg Compound I-57 administered to the hPBMC AdT model.
The PK/PD relationship of I-57 was examined in the hPBMC AdT model system. Human PBMCs were adoptively transferred into female NSG mice harboring established MDA-MB231 xenografts (FIG. 6). This model was selected based on the observation that IKZF2 positive Tregs (CD4+FOXP3+) were readily identifiable in peripheral blood and infiltrated in the tumor xenografts.
The impact of I-57 on IKZF2 protein expression in human Tregs in the periphery and infiltrated in MDA-MB231 xenografts was assessed via flow cytometry at multiple time points after the last I-57 dose. […] Maximum effects were generally observed 4-16 h post dose. At a given dose level, the magnitude and duration of IKZF2 reduction in Tregs was generally consistent across tissues (tumor, spleen and blood).
Based on the data from this hPBMC AdT mouse model, unbound I-57 (73% percent plasma binding in the mouse) exposures (AUCinf) of 7, 30, 157 and 3474 ng*h/mL are required to achieve the reduction of IKZF2 positivity (via flow cytometry) in tumor Tregs by 31, 43, 56, and 75%, respectively. The relationship between the magnitude and duration of I-57-mediated IKZF2 degradation and subsequent modulation of therapeutically relevant downstream biology is not yet well understood.

[2] = In vivo non-clinical PK profile, i.v. and p.o., all species tested (mouse, rat, dog, cynomolgus monkey)
Description: (§1) The in vivo non-clinical PK profile of I-57 was investigated in mouse, rat, dog and cynomolgus monkey using I-57 free base. […] After p.o. administration, the absorption of I-57 was rapid with peak blood concentration (Tmax) occurring between 1 and 4 hours. […] In high dose PK and toxicology studies with I-57 the exposures in mouse, rat and monkey increased with dose.

[3] = In vivo non-clinical PK / high dose PK; settings: mouse; between 3 mg/kg and 100 mg/kg
Description: as §1
The binding to plasma protein of I-57 in vitro was moderate in all species, with an observed difference between rodents (73% in mouse, 76% in rat) and non-rodents (52% in dog and monkey, 54% in human). Blood-to-plasma ratios were in the range of 0.7-1.8 (human 1.1-1.3). […] Based on results with non-radiolabeled I-57 in the dog, a significant amount of unchanged I-57 was renally eliminated (˜20% of dose).

[4] = In vitro metabolism in liver microsomes and hepatocytes across species; type: in vitro ADME
human recombinant CYPs = assay: Assessment of enzymes involved in oxidative metabolism using human recombinant CYPs in vitro; type: in vitro ADME; settings: preliminary assessment
Description: In vivo in the dog, very minor amounts of the N-dealkylation product and products derived from hydrolysis of the glutarimide moiety were detected in plasma. While the contribution of CYP-mediated oxidative metabolism to systemic clearance is unknown, a preliminary assessment of the enzymes involved was conducted using human recombinant CYPs in vitro.

[5] = ECG (QTc interval) in single dose and 4-week GLP repeat dose study; type: in vivo, monkey
Description: The risk of possible QTc interval prolongation at the starting dose is therefore considered low. QT prolongation may become clinically significant during escalation but are not anticipated to be dose limiting until doses at or above 640 mg. Monitoring and other measures to mitigate potential risk of arrhythmia is addressed in Example 3 below.

cynomolgus monkeys = assay: 4-week GLP toxicology study in cynomolgus monkeys; type: in vivo
Description: (§2) The starting dose of I-57 selected for this study is supported by 4-week GLP toxicology studies performed in cynomolgus monkeys. […] GLP toxicity studies identified 30 mg/kg as the HNSTD in monkey and supported a starting dose up to 100 mg QD in human (BSA scaled HED and using a safety factor of 6). The selected dose of 20 mg is anticipated to result in a significant but sub-maximal IKZF2 degradation in human PBMCs and TILs (50-90%), based on PK/PD modeling of I-57 exposure and IKZF2 degradation in cynomolgus PBMCs. More IKZF2 degradation may be required to change downstream biology. Therefore, 20 mg is considered safe. Escalation from this starting dose will facilitate the determination of the minimal required dose which provides optimal IKZF2 degradation to impact downstream biological activity.

monkey IKZF2 = assay: IKZF2 degradation, species relevance (monkey)
Description: as §2

rat IKZF2 = target: T2, rat IKZF2 (Rattus norvegicus, UniProt A0A0G2JVA9); assay: IKZF2 degradation, species relevance (rat)
T2 construct: assessed in primary PBMCs obtained from rabbit, dog, pig, cynomolgus monkey, and human, and in primary splenocytes of mouse and rat; endogenous in cells; host or cells: primary rat splenocytes
T2 sequence (A0A0G2JVA9 1-467): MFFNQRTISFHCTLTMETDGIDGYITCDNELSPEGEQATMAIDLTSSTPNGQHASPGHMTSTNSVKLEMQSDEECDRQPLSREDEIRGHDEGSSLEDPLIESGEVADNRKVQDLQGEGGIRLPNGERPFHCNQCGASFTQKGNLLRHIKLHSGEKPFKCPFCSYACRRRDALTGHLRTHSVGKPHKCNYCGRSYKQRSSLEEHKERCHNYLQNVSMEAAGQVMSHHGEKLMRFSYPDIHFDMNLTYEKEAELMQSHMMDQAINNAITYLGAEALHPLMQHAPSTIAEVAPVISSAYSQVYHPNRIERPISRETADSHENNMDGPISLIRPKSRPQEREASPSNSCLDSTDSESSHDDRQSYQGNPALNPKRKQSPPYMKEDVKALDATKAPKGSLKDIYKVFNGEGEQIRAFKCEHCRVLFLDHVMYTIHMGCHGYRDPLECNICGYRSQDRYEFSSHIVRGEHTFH
T2 sequence (Q56AP7 whole entry partner): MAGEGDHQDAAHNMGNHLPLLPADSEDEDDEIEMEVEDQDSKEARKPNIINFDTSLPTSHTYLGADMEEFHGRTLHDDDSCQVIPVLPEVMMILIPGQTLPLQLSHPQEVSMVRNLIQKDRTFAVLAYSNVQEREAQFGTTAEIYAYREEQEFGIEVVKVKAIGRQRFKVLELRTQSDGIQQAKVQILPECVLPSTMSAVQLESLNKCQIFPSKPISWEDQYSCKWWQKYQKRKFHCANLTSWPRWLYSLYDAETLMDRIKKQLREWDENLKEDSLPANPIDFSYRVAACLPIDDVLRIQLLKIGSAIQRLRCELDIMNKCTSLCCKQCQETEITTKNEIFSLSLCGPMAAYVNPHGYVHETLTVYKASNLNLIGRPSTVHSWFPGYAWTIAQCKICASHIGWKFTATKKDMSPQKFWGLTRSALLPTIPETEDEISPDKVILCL
Description: as §2

IKZF2 = IKZF2 (Homo sapiens, UniProt Q96SW2+Q9UKS7); assay: IKZF2 protein in total tumor-infiltrating lymphocytes by immunohistochemistry, hPBMC AdT model (FIG. 8); type: in vivo; design: endogenous in cells; host or cells: primary human PBMCs / primary Treg cells; settings: 24 h post the 14th daily dose
Sequence of IKZF2 (Q9UKS7 whole entry): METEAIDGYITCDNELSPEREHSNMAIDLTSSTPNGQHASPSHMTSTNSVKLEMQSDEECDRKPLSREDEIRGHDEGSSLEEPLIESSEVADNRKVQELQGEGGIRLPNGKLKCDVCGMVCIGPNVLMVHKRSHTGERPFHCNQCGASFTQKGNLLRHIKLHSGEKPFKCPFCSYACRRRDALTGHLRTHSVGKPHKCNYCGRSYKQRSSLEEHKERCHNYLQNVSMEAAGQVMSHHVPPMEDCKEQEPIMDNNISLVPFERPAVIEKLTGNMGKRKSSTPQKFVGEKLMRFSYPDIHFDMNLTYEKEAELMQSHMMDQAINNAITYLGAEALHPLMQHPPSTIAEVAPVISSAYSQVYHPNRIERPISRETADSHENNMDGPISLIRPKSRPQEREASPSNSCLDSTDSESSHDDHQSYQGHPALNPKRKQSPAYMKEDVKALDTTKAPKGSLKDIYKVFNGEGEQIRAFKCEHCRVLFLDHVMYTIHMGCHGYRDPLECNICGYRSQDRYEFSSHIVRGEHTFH
Sequence of IKZF2 (Q96SW2 whole entry): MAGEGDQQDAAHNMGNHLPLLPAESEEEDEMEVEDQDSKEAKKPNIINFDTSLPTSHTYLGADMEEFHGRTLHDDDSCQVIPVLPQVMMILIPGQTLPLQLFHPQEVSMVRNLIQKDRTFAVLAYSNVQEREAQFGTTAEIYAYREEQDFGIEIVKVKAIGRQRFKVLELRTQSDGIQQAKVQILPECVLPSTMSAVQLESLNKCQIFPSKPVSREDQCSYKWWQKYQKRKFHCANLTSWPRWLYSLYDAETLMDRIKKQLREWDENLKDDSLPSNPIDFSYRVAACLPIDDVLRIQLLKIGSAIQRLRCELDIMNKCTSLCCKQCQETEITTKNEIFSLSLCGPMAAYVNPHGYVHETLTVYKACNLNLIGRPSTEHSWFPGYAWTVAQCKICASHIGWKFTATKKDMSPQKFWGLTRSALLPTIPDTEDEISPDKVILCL
Sequence of IKZF2 (Q16531 whole entry partner): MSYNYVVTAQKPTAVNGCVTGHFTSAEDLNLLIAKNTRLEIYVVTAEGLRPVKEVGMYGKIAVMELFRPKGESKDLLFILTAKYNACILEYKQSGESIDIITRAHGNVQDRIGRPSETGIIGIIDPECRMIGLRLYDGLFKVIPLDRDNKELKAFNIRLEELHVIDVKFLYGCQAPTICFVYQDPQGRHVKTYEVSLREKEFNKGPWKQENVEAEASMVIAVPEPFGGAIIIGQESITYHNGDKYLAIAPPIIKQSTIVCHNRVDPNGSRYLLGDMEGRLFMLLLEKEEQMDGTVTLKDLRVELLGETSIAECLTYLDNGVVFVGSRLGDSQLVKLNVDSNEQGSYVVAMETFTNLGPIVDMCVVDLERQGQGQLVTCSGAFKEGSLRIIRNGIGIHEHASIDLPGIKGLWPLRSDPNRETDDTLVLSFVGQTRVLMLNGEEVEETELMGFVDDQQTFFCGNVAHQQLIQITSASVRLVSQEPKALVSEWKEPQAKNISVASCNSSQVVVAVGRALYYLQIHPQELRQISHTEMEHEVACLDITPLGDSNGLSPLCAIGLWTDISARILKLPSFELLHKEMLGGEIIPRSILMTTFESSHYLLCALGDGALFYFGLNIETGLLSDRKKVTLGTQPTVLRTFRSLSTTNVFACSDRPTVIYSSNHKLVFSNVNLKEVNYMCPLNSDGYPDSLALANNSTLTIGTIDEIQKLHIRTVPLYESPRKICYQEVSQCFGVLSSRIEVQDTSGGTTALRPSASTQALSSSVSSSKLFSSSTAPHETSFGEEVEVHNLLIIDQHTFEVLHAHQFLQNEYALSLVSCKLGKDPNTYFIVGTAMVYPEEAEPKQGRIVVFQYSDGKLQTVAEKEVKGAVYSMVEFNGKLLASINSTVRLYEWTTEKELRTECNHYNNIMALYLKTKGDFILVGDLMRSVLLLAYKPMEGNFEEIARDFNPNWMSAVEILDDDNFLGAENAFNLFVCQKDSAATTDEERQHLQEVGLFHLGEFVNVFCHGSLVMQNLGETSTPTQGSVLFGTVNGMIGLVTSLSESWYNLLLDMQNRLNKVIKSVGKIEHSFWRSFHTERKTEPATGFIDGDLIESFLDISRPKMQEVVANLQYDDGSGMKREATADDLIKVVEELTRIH
Description: FIG. 8A is a bar graph showing the change in the IKZF2 protein levels in total tumor-infiltrating lymphocytes by immunohistochemistry (IHC) at 24 h post the 14th daily dose of 1, 3 or 30 mg/kg Compound I-57.
IKZF2 protein levels in total tumor-infiltrating lymphocytes were also assessed by immunohistochemistry (IHC) at 24 h post the 14th dose of 1, 3 or 30 mg/kg I-57. […] Overall, IKZF2 degradation assessed by IHC was generally consistent with our findings in Tregs by flow cytometry, though dose dependency was less apparent. Together, the data support the finding of profound I-57-mediated IKZF2 degradation in tumor-infiltrating lymphocytes (FIG. 8A and FIG. 8B).

T1 sequence (Q9UKS7 whole entry): as the sequence (Q9UKS7 whole entry) above
T1 sequence (Q96SW2 whole entry): as the sequence (Q96SW2 whole entry) above
T1 sequence (Q16531 whole entry partner): as the sequence (Q16531 whole entry partner) above

O=C1CCC(N2Cc3cc(C4CCN(Cc5ccccc5)CC4)ccc3C2=O)C(=O)N1 (centres unmarked) [Compound I-57, 3-(5-(1-benzylpiperidin-4-yl)-1-oxoisoindolin-2-yl)piperidine-2,6-dione]
time of maximum effects ([1]; post dose (after last dose)): 4 to 16 h
IKZF2 degradation (reduction of percentage of IKZF2 positive Tregs) ([1]; tumor and peripheral blood, 14 daily oral doses of 0.3, 1, 3 and 30 mg/kg): robust dose and exposure-dependent IKZF2 degradation
reduction of IKZF2 positivity in tumor Tregs (flow cytometry) ([1]; unbound AUCinf 7 ng*h/mL): 31%
reduction of IKZF2 positivity in tumor Tregs (flow cytometry) ([1]; unbound AUCinf 30 ng*h/mL): 43%
reduction of IKZF2 positivity in tumor Tregs (flow cytometry) ([1]; unbound AUCinf 157 ng*h/mL): 56%
reduction of IKZF2 positivity in tumor Tregs (flow cytometry) ([1]; unbound AUCinf 3474 ng*h/mL): 75%
terminal half-life (T1/2) ([2]; i.v. administration, all species tested): moderate
absorption ([2]; p.o. administration): rapid
increase in AUC with dose [3]: roughly dose proportional
metabolic stability [4]: very stable
enzyme primarily mediating oxidative metabolism (human recombinant CYPs): CYP3A4
free Cmax in monkeys relative to free Cmax predicted at the clinical starting dose of 20 mg ([5]; monkeys at 3 mg/kg): 40 times
QT effects ([5]; monkeys, 3 mg/kg): no QT effects
time of highest magnitude of QTc effect ([5]; monkeys, coinciding with Tmax): 0.5 to 5.5 h
supported starting dose in human (BSA scaled HED, safety factor of 6) (cynomolgus monkeys; derived from monkey HNSTD): up to 100 mg QD
HNSTD (cynomolgus monkeys; monkey, 4-week GLP toxicity studies): 30 mg/kg
degradation of monkey IKZF2 (monkey IKZF2): can degrade monkey
degradation of rat IKZF2 (rat IKZF2): not rat
IKZF2 degradation in total tumor-infiltrating lymphocytes (IHC) (IKZF2; 30 mg/kg): approximately 85%
IKZF2 levels in total tumor-infiltrating lymphocytes (IHC) (IKZF2; 1, 3 and 30 mg/kg): Robust reduction in IKZF2 levels
